# Experimental data taken from ChEMBL document CHEMBL4715730, “Design, synthesis, and pharmacological evaluation of multitarget-directed ligands with both serotonergic subtype 4 receptor (5-HT4R) partial agonist and 5-HT6R antagonist activities, as potential treatment of Alzheimer's disease” (Eur J Med Chem, 2016).
# Active and inactive are the calls of the source. No cut-off for these calls is given here.
# Experiments:
# [1] = biological target: T1, 5-hydroxytryptamine receptor 6 (Homo sapiens, UniProt P50406); experiment: Displacement of [3H]-LSD from human 5-HT6 receptor expressed in HEK293 cells at 0.01 uM in presence of serotonin incubated for 60 mins; type: cell-based
# [2] = biological target: 5-hydroxytryptamine receptor 4 (Cavia porcellus) (UniProt O70528); experiment: Displacement of [3H]-GR113808 from guinea pig brain 5HT4 receptor at 1 uM in presence of serotonin incubated for 30 mins; type: tissue-based
# [3] = biological target: T1, 5-hydroxytryptamine receptor 6; experiment: Displacement of [3H]-LSD from human 5-HT6 receptor expressed in HEK293 cells at 1 uM in presence of serotonin incubated for 60 mins; type: cell-based
# [4] = biological target: 5-hydroxytryptamine receptor 4 (Cavia porcellus, UniProt O70528); experiment: Displacement of [3H]-GR113808 from guinea pig brain 5HT4 receptor in presence of serotonin incubated for 30 mins; type: tissue-based
# [5] = biological target: 5-hydroxytryptamine receptor 4 (Cavia porcellus) (UniProt O70528); experiment: Displacement of [3H]-GR113808 from guinea pig brain 5HT4 receptor at 0.01 uM in presence of serotonin incubated for 30 mins; type: tissue-based
# [6] = biological target: T1, 5-hydroxytryptamine receptor 6; experiment: Displacement of [3H]-LSD from human 5-HT6 receptor expressed in HEK293 cells in presence of serotonin incubated for 60 mins; type: cell-based
# [7] = biological target: 5-hydroxytryptamine receptor 2B (Homo sapiens) (UniProt P41595); experiment: Displacement of [125I]+/-DOI from human recombinant 5-HT2B receptor at 10 uM after 60 mins by scintillation counting analysis relative to control
# [8] = biological target: T2, 5-hydroxytryptamine receptor 2A (Homo sapiens, UniProt P28223); experiment: Displacement of [3H]ketanserin human recombinant 5-HT2A receptor after 60 mins by scintillation counting analysis relative to control
# [9] = Toxicity in NMRI mouse assessed as neurological changes upto 100 mg/kg, ip measured 0.5 to 24 hrs; type: organism-based; settings: in vivo, time 0.5-24 hrs
# Mus musculus [10] = experiment: Anti-amnesic effect in scopolamine-induced memory impairment NMRI mouse model assessed as spatial working memory by measuring increase in spontaneous alteration at 1 mg/kg, ip measured after 30 mins by Y-maze test; type: functional, organism-based
# Mus musculus [11] = experiment: Anti-amnesic effect in scopolamine-induced memory impairment NMRI mouse model assessed as spatial working memory by measuring increase in spontaneous alteration at 10 mg/kg, ip measured after 30 mins by Y-maze test; type: functional, organism-based
# [12] = biological target: T3, 5-hydroxytryptamine receptor 2C (Homo sapiens) (UniProt P28335); experiment: Displacement of [125I]+/-DOI from human recombinant 5-HT2C receptor at 10 uM after 60 mins by scintillation counting analysis relative to control
# T3 sequence (whole entry): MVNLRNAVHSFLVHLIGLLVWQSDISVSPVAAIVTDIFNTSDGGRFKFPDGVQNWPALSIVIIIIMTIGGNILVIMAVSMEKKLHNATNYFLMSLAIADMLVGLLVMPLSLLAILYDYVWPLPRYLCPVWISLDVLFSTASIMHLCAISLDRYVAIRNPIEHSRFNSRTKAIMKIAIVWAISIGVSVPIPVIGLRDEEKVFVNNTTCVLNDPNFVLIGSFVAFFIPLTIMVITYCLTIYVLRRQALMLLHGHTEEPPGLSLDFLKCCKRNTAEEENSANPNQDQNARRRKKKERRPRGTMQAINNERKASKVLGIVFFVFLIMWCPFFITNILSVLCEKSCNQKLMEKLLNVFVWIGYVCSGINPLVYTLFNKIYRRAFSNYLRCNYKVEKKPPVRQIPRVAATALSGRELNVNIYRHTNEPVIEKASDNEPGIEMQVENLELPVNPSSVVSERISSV
# Mus musculus [13] = experiment: Anti-amnesic effect in scopolamine-induced memory impairment NMRI mouse model assessed as spatial working memory by measuring increase in spontaneous alteration at 0.1 mg/kg, ip measured after 30 mins by Y-maze test; type: functional, organism-based
# [14] = Effect on spontaneous locomotory activity in NMRI mouse at 100 mg/kg, ip measured for 30 mins; type: organism-based; settings: in vivo, 0.5 h
# [15] = biological target: 5-hydroxytryptamine receptor 2B (Homo sapiens) (UniProt P41595); experiment: Displacement of [125I]+/-DOI from human recombinant 5-HT2B receptor at 0.01 uM after 60 mins by scintillation counting analysis relative to control
# [16] = Toxicity in NMRI mouse assessed as behavioral changes upto 100 mg/kg, ip measured 0.5 to 24 hrs; type: organism-based; settings: in vivo, time 0.5-24 hrs
# [17] = biological target: 5-hydroxytryptamine receptor 1D (Rattus norvegicus) (UniProt P28565); experiment: Displacement of [3H]serotonin from recombinant rat 5-HT1D receptor at 10 uM after 60 mins by scintillation counting analysis relative to control
# [18] = biological target: 5-hydroxytryptamine receptor 1B (Rattus norvegicus) (UniProt P28564); experiment: Displacement of [125I]-CYP from rat brain 5-HT1B receptor at 10 uM after 120 mins by scintillation counting analysis relative to control; type: tissue-based
# [19] = biological target: T2, 5-hydroxytryptamine receptor 2A; experiment: Displacement of [3H]ketanserin human recombinant 5-HT2A receptor at 10 uM after 60 mins by scintillation counting analysis relative to control
# [20] = biological target: T4, 5-hydroxytryptamine receptor 1A (Homo sapiens) (UniProt P08908); experiment: Displacement of [3H]8-OH-DPAT from recombinant human 5-HT1A receptor at 10 uM after 60 mins by scintillation counting analysis relative to control
# T4 sequence (whole entry): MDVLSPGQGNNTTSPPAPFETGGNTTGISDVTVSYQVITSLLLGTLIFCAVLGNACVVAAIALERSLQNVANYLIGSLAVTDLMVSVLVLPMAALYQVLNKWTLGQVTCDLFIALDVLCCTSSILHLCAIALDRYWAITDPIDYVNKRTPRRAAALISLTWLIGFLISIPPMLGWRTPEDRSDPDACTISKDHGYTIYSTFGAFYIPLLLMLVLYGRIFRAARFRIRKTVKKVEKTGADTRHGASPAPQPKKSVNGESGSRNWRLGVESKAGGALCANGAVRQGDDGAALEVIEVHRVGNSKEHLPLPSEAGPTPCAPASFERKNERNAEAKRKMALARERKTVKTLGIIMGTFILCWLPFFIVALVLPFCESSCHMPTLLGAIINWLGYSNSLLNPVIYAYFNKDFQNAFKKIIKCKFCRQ
# [21] = biological target: T5, 5-hydroxytryptamine receptor 2C (Homo sapiens, UniProt P28335); experiment: Displacement of [125I]+/-DOI from human recombinant 5-HT2C receptor after 60 mins by scintillation counting analysis
# T5 sequence (P28335 whole entry): T3 sequence (whole entry)
# Sequence of 5-hydroxytryptamine receptor 4 (Cavia porcellus) (O70528 whole entry): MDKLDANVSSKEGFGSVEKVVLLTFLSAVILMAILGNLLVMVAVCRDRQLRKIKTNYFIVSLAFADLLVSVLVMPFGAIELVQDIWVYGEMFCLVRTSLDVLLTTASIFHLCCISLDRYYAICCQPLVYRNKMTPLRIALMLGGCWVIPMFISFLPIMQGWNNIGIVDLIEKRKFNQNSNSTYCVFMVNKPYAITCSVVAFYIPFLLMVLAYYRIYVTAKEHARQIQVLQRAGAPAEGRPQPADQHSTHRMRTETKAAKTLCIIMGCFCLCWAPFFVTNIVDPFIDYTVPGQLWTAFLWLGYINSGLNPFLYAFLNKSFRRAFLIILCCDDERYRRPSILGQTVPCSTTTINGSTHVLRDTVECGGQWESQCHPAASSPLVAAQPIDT
# Sequence of 5-hydroxytryptamine receptor 4 (O70528 whole entry): as above
# T1 sequence (P50406 whole entry): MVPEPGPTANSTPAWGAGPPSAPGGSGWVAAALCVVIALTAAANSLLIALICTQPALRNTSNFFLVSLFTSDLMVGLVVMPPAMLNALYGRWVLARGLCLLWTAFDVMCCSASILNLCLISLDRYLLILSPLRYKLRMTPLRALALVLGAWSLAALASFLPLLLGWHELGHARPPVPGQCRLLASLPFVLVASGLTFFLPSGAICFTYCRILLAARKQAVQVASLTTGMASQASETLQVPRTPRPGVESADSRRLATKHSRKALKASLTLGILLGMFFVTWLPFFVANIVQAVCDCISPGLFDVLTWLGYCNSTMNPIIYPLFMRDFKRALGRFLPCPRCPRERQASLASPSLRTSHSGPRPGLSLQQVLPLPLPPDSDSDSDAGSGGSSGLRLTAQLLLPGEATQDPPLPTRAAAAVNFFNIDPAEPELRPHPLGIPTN
# T2 sequence (P28223 whole entry): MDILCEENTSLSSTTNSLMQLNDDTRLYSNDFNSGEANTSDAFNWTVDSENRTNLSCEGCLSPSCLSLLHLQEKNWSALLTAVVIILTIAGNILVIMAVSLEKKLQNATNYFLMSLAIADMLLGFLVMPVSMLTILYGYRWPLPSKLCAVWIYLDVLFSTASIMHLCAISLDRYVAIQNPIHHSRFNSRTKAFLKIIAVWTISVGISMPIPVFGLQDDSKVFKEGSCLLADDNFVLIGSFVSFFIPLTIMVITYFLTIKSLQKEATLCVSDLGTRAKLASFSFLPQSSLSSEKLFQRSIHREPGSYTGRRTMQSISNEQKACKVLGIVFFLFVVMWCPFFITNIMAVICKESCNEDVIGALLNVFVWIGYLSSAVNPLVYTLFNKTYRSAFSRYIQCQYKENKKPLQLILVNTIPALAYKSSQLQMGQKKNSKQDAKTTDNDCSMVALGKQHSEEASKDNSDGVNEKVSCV
# Sequence of 5-hydroxytryptamine receptor 2B (Homo sapiens) (P41595 whole entry): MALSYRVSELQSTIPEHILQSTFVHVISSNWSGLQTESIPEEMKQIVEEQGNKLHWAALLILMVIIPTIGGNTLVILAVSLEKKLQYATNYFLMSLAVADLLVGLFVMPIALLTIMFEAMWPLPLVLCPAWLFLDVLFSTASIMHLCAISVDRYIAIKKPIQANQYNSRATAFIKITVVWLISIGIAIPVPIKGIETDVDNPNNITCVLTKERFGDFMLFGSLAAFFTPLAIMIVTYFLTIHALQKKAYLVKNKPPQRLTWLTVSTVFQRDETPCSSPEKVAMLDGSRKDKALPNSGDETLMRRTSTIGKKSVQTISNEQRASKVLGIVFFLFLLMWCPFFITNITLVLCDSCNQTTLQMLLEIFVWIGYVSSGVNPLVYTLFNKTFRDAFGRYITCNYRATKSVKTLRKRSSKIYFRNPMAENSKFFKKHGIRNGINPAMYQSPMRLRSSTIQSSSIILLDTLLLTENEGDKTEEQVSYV
# Sequence of 5-hydroxytryptamine receptor 1B (Rattus norvegicus) (P28564 whole entry): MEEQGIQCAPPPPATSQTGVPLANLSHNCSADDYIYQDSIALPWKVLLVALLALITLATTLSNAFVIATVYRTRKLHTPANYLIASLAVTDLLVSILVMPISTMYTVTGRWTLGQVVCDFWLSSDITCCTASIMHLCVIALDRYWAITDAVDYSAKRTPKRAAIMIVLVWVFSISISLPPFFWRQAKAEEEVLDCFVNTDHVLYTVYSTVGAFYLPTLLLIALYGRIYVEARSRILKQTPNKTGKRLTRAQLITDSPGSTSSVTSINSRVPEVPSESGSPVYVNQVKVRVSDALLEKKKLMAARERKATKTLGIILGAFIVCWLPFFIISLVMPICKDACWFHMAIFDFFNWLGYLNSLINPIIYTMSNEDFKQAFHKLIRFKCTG
# Sequence of 5-hydroxytryptamine receptor 1D (Rattus norvegicus) (P28565 whole entry): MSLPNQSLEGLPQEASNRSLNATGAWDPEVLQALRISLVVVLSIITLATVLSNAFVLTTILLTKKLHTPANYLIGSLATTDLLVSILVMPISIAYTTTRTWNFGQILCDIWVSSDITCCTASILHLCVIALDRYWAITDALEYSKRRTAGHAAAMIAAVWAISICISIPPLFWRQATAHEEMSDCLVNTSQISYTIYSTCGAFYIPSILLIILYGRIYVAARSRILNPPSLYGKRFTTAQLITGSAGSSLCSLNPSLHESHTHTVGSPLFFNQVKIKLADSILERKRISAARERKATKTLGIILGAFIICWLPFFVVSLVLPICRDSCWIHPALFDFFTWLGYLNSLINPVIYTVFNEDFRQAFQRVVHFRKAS
Structure (SMILES),inhibition [1],inhibition ([2]; filed as agonist),Ki ([4]; read-out: Ki),inhibition ([5]; filed as agonist),inhibition [5],inhibition ([3]; filed as antagonist),other results
COc1ccc(S(=O)(=O)NCCCN2CCC(CCC(=O)c3cc(Cl)c(N)cc3OC)CC2)cc1,inactive,100%,26 nM,41%,–,–,inhibition [3]: inactive
COc1ccc(NS(=O)(=O)c2sc3ccc(Cl)cc3c2C)cc1N1CCNCC1,–,–,–,–,–,–,Ki ([6]; hek293): Active
COc1ccc(S(=O)(=O)N2CCC(CCC(=O)c3cc(Cl)c(N)cc3OC)CC2)cc1,inactive,–,–,–,10%,–,inhibition [2]: 20%; inhibition [3]: inactive
COc1ccc(S(=O)(=O)NCCN2CCC(CCC(=O)c3cc(Cl)c(N)cc3OC)CC2)c(OC)c1,inactive,100%,18.7 nM,–,19%,45%,–
COc1cc(N)c(Cl)cc1C(=O)CCC1CCN(CCNS(=O)(=O)c2cc(Br)c(N)c(Br)c2)CC1,–,100%,8.7 nM,46%,–,83%,inhibition ([1]; filed as antagonist): 52%; Ki ([6]; read-out: Ki): 140 nM
COc1cc(N)c(Cl)cc1C(=O)CCC1CCN(CCNS(=O)(=O)c2cc(Br)ccc2Br)CC1,16%,100%,16.3 nM,51%,–,52%,–
COc1ccc(S(=O)(=O)CCCN2CCC(CCC(=O)c3cc(Cl)c(N)cc3OC)CC2)cc1,10%,100%,12.2 nM,–,11%,–,inhibition [3]: 33%
CCCCN1CCC(CCC(=O)c2cc(Cl)c(N)cc2OC)CC1,–,–,–,–,–,–,Ki ([6]; hek293): Active; Ki [4]: Active
COc1cc(N)c(Cl)cc1C(=O)CCC1CCN(CCNS(=O)(=O)c2ccc(N)cc2)CC1,7%,100%,1.97 nM,76%,–,46%,–
COc1ccc(S(=O)(=O)NCCN2CCC(CCC(=O)c3cc(Cl)c(N)cc3OC)CC2)cc1Br,inactive,99%,24.3 nM,–,24%,72%,Ki ([6]; read-out: Ki): 147 nM
COc1cc(N)c(Cl)cc1C(=O)CCC1CCN(CCNS(=O)(=O)c2ccc3c(c2)NC(=O)CO3)CC1,inactive,100%,6.2 nM,–,30%,–,inhibition ([3]; filed as agonist): 40%
COc1cc(N)c(Cl)cc1C(=O)CCC1CCN(CCNS(=O)(=O)c2ccc3c(c2)N(C)CCO3)CC1,inactive,100%,50 nM,–,12%,–,inhibition [3]: 7%
COc1cc(N)c(Cl)cc1C(=O)CCC1CCN(CCNS(=O)(=O)c2ccc(C)cc2)CC1,inactive,100%,18 nM,–,20%,–,inhibition [3]: 15%
COc1ccc(S(=O)(=O)NCCN2CCC(CCC(=O)c3cc(Cl)c(N)cc3OC)CC2)cc1,36%,100%,12.3 nM,48%,–,52%,–
COc1cc(N)c(Cl)cc1C(=O)CCC1CCN(CCNS(=O)(=O)c2ccc(N)c(Br)c2)CC1,39%,100%,5.3 nM,60%,–,85%,inhibition [7]: 100%; Ki [8]: 330 nM; Activity [9]: Non-Toxic; Activity (Mus musculus [10]): Active; Activity (Mus musculus [11]): inactive; inhibition [12]: 92.6%; Activity (Mus musculus [13]): inactive; Activity [14]: Non-Toxic; Ki ([6]; read-out: Ki): 219 nM; inhibition [15]: 41%; Activity [16]: Non-Toxic; inhibition [17]: 51.1%; inhibition [18]: 62.3%; inhibition [19]: 93.6%; inhibition [20]: 66.1%; Ki [21]: 160 nM
COc1cc(N)c(Cl)cc1C(=O)CCC1CCN(CCNS(=O)(=O)c2ccc(OC)c(N3CCN(C)CC3)c2)CC1,4%,97%,3.46 nM,75%,–,43%,–
COc1ccc(S(=O)(=O)NCCN2CCC(CCC(=O)c3cc(Cl)c(N)cc3OC)CC2)cc1Cl,20%,100%,22.5 nM,41%,–,85%,Ki ([6]; read-out: Ki): 158 nM
COc1ccc(S(=O)(=O)NCCN2CCC(CCC(=O)c3cc(Cl)c(N)cc3OC)CC2)cc1OC,3%,100%,8.2 nM,–,30%,58%,–
COc1cc(N)c(Cl)cc1C(=O)CCC1CCN(CCNS(=O)(=O)c2ccc(NC(C)=O)cc2)CC1,7%,100%,7.7 nM,56%,–,67%,Ki ([6]; read-out: Ki): 834 nM
